In ChEMBL document CHEMBL2040733, “Doing the methylene shuffle--further insights into the inhibition of mitotic kinesin Eg5 with S-trityl L-cysteine” (Eur J Med Chem, 2012):
Values after ≈ are worked out from the molar mass of the structure shown.

How the values were obtained:
[1] = molecular target: T1, Kinesin-like protein KIF11 (Homo sapiens, UniProt P52732)
T1 sequence (P52732 whole entry): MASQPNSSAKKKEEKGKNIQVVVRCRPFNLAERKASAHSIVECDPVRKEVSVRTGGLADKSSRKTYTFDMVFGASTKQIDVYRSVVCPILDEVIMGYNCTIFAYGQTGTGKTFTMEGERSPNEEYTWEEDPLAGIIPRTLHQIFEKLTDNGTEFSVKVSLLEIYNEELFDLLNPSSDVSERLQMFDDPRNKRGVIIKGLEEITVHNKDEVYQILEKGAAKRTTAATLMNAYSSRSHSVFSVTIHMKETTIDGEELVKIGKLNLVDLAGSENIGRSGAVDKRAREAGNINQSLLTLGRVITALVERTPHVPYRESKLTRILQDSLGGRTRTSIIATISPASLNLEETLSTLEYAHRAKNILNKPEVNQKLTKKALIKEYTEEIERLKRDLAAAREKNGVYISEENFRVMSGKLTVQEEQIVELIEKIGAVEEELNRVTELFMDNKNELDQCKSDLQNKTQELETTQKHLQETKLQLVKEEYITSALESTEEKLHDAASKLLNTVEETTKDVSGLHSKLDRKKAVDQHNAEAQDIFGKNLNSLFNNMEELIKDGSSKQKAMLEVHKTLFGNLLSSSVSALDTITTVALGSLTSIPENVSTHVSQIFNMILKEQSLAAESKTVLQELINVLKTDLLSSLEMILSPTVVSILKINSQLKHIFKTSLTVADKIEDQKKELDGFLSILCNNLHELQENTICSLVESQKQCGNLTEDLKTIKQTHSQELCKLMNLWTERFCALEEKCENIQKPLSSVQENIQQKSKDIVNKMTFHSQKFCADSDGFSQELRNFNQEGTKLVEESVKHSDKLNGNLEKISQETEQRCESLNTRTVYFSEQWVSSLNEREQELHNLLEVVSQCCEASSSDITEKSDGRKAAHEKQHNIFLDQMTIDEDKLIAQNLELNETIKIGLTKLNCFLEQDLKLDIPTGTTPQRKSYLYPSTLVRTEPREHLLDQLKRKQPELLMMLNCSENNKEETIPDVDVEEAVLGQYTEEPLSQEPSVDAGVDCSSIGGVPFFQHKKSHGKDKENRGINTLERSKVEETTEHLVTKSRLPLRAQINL
Description: Inhibition of basal ATPase activity of Eg5 by coupled pyruvate kinase/lactate dehydrogenase assay

[2] = system: HCT-116; test: Cytotoxicity against human HCT116 cells after 72 hrs by Alamar blue assay; type: functional; conditions: HCT-116, 72 h
[3] = Cytotoxicity against wild type human KB-3-1 cells; type: functional
[4] = Solubility of the compound in phosphate buffered saline at pH 7.4 after 2 hrs by turbidimetric analysis; type: physicochemical
[5] = system: KB-V1; test: Multidrug resistant ratio of GI50 for human KBV1 cells expressing p-glycoprotein to GI50 for wild type human KB-3-1 cells; type: functional
[6] = Cytotoxicity against human KBV1 cells expressing p-glycoprotein; type: functional; conditions: KB-V1
[7] = system: BXPC-3; test: Cytotoxicity against human BxPC3 cells after 72 hrs by Alamar blue assay; type: functional; conditions: BXPC-3, 72 h
[8] = system: NCI-H1299; test: Cytotoxicity against human NCI-H1299 cells after 72 hrs by Alamar blue assay; type: functional; conditions: NCI-H1299, 72 h
[9] = system: K562; test: Cytotoxicity against human K562 cells after 72 hrs by Alamar blue assay; type: functional; conditions: K562, 72 h

Row | Compound | IC50 [1] | GI50 [9] | also measured
1 | N[C@@H](CSC(Cc1cccc(Cl)c1)(c1ccccc1)c1ccccc1)C(=O)O | 238 nM | – | –
2 | NCCSC(Cc1ccccc1)(c1ccccc1)c1cccc(Cl)c1 (racemic) | 519 nM | – | –
3 | Cc1ccc(C(Cc2ccccc2)(SCCN)c2ccc(C)cc2)cc1 | 261 nM | – | –
4 | N[C@@H](CSC(C(=O)c1ccccc1)(c1ccccc1)c1ccccc1)C(=O)O | > 150000 nM | – | –
5 | NCCSC(Cc1ccccc1)(c1ccccc1)c1ccc(Cl)c(Cl)c1 (racemic) | 229 nM | – | –
6 | NCCSC(Cc1ccccc1)(c1ccccc1)c1ccc(F)cc1 (racemic) | 578 nM | – | –
7 | N[C@@H](CSC(Cc1ccc(Cl)c(Cl)c1)(c1ccccc1)c1ccccc1)C(=O)O | 5280 nM | – | –
8 | NCCSC(Cc1ccccc1)(c1ccc(Cl)cc1)c1cccc(Cl)c1 (racemic) | 437 nM | – | –
9 | Cc1ccc(C(Cc2ccccc2)(SC[C@H](N)C(=O)O)c2ccccc2)cc1 (mixture of isomers) | 168 nM | 1440 nM | GI50 [2]: 1490 nM; GI50 [3]: 2440 nM; solubility kinetic at 2 h [4]: 11.5 µM; RatioGI50 [5]: >20; GI50 [6]: > 50000 nM; GI50 [7]: 4340 nM; GI50 [8]: 2430 nM
10 | N[C@@H](CSC(Cc1ccccc1)(c1ccccc1)c1ccc(F)cc1)C(=O)O (mixture of isomers) | 151 nM | 6100 nM | –
11 | N[C@@H](CSC(Cc1ccccc1)(c1ccccc1)c1cccc(O)c1)C(=O)O (mixture of isomers) | 67.6 nM | 17700 nM | –
12 | Cc1ccc(C(Cc2ccccc2)(SCCN)c2ccccc2)cc1 (racemic) | 172 nM | 2390 nM | GI50 [2]: 1170 nM; GI50 [3]: 1880 nM; solubility kinetic at 2 h [4]: 6.5 µM (≈ 2.26 µg/mL); RatioGI50 [5]: 1; GI50 [6]: 1720 nM; GI50 [7]: 4070 nM; GI50 [8]: 2500 nM
13 | N[C@@H](CSC(Cc1ccccc1)(c1ccccc1)c1ccccc1F)C(=O)O (mixture of isomers) | 217 nM | – | –
14 | NCCSC(Cc1ccccc1)(c1ccc(Cl)cc1)c1ccc(Cl)cc1 | 404 nM | – | –
15 | N[C@@H](CSC(Cc1ccccc1)(c1ccccc1)c1ccc(O)cc1)C(=O)O (mixture of isomers) | 159 nM | 18200 nM | –
16 | NCCSC(Cc1ccccc1)(c1ccccc1)c1ccc(Cl)cc1 (racemic) | 141 nM | 3720 nM | GI50 [2]: 2050 nM; GI50 [3]: 5550 nM; RatioGI50 [5]: 1; GI50 [6]: 5780 nM; GI50 [7]: 4260 nM; GI50 [8]: 6790 nM
17 | NCCSC(Cc1ccccc1)(c1ccccc1)c1ccccc1F (racemic) | 790 nM | – | –
18 | NCCSC(Cc1ccccc1)(c1ccccc1)c1ccc(O)cc1 (racemic) | 666 nM | – | –

Row | Compound | IC50 [1] | GI50 [9] | also measured
19 | NCCSC(c1ccccc1)(c1ccccc1)c1ccccc1 | 241 nM | – | –
20 | NCCSC(c1ccccc1)(c1ccccc1)c1ccncc1 | 942 nM | – | –
21 | Cc1ccc(C(Cc2ccccc2)(SC[C@H](N)C(=O)O)c2ccc(C)cc2)cc1 | 106 nM | 2790 nM | –
22 | NCCSC(C(=O)c1ccccc1)(c1ccccc1)c1ccccc1 | > 50000 nM | – | –
23 | N[C@@H](CSC(Cc1ccccc1)(c1ccccc1)c1ccc(Cl)cc1)C(=O)O (mixture of isomers) | 58.6 nM | 2470 nM | GI50 [2]: 2080 nM; GI50 [3]: 4890 nM; RatioGI50 [5]: >10; GI50 [6]: > 50000 nM; GI50 [7]: 3790 nM; GI50 [8]: 3630 nM
24 | N[C@@H](CSC(Cc1ccccc1)(c1ccc(Cl)cc1)c1cccc(Cl)c1)C(=O)O (mixture of isomers) | 568 nM | – | –
25 | N[C@@H](CSC(Cc1ccccc1)(c1ccccc1)c1ccccc1)C(=O)O | 138 nM | 3140 nM | GI50 [2]: 2370 nM; GI50 [3]: 5330 nM; solubility kinetic at 2 h [4]: > 100 µM; RatioGI50 [5]: >10; GI50 [6]: > 50000 nM; GI50 [7]: 14300 nM; GI50 [8]: 6870 nM
26 | N[C@@H](CSC(Cc1ccccc1)(c1ccc(F)cc1)c1ccc(F)cc1)C(=O)O (mixture of isomers) | 178 nM | 5120 nM | –
27 | NCCSC(Cc1ccccc1)(c1ccc(F)cc1)c1ccc(F)cc1 | 588 nM | – | –
28 | NCCSC(Cc1ccccc1)(c1ccccc1)c1ccccc1 | 684 nM | – | solubility kinetic at 2 h [4]: > 100 µM
29 | N[C@@H](CSC(Cc1ccccc1)(c1ccc(Cl)cc1)c1ccc(Cl)cc1)C(=O)O | 252 nM | – | –
30 | N[C@@H](CSC(CCc1ccccc1)(c1ccccc1)c1ccccc1)C(=O)O | 15800 nM | – | –
31 | N[C@@H](CSC(Cc1ccc(Cl)cc1)(c1ccccc1)c1ccccc1)C(=O)O | 456 nM | – | –
32 | N[C@@H](CSC(Cc1ccccc1)(c1ccccc1)c1ccc(Cl)c(Cl)c1)C(=O)O (mixture of isomers) | 191 nM | – | –
33 | NCCSC(Cc1ccccc1)(c1ccccc1)c1cccc(O)c1 (racemic) | 256 nM | 2730 nM | –
34 | N[C@@H](CSC(c1ccccc1)(c1ccccc1)c1ccncc1)C(=O)O | 514 nM | – | –
35 | N[C@@H](CSC(Cc1ccccc1)(c1ccccc1)c1cccc(Cl)c1)C(=O)O (mixture of isomers) | 129 nM | 4540 nM | –
